Data published in patent US12624049B2, “Salt and crystal forms of 4-amino-5-(6-(4-methylpiperazin-1-yl)-1H-benzo[d]imidazol-z-yl)thieno[2.3-b]pyridin-6(7H)-one” (UNIVERSITY HEALTH NETWORK, priority 2020, dated 2026).
Values after ≈ are worked out from the molar mass of the structure shown. Structures can show the parent of a compound that is named as a salt. Where two headings read alike, the source gives them in different places. Blank lines part the entries; values can stand above or below the compound they belong to.

Key:
[1] = Pharmacokinetics after single oral dose (powder in capsule), Compound (I) plasma level by LC/MS; assay type: in vivo, male Beagle dogs
Protocol: A single dose as powder in capsule of Compound (I), 1:1 Compound (I) mono HCl salt (Batch 3), di-HCl salt of Compound (I), and 1:1 Compound (I) tartrate salt was administrated to male Beagle dogs at either 125 mg/kg or 150 mg/kg. Blood samples were collected for up to 24 h and the plasma was analyzed for Compound (I) plasma level by LC/MS.

[2] = Solubility in water, SGF and FaSSIF (supernatant by HPLC/UPLC); assay type: physicochemical; conditions: for Solubility (mg/mL) water: stirred 1 h at ambient temperature, analyzed at 24 h; for Solubility (mg/mL) FaSSIF: fasted state simulated intestinal fluid buffer, target 2 mg/mL; for Solubility (mg/mL) FaSSIF / Solubility (mg/mL) SGF: 24 h at 37° C.; for Solubility (mg/mL) SGF: simulated gastric fluid buffer, target 10 mg/mL
Protocol: The compounds to be tested were prepared in 3 different media as described below.
Samples prepared in water: approximately 30-40 mg of test material was weighted into a glass vial. 1 mL of water was added. The sample was stirred for 1 h at ambient temperature and the sample was analyzed by HPLC at 24 h.
Samples prepared in simulated gastric fluid (SGF) buffer: approximately 40 mg of test material was weighted into a glass vial. 4 mL of SGF buffer was added to make a target concentration at 10 mg/mL. The sample was stirred for 24 h at 37° C. and the sample was analyzed by HPLC at 24 h.
Samples prepared in fasted state simulated intestinal fluid (FaSSIF) buffer: approximately 8 mg of test material was weighted into a glass vial. 4 mL of FassiF buffer was added to make a target concentration at 2 mg/mL. The sample was stirred for 24 h at 37° C. and the sample was analyzed by HPLC at 24 h.
The samples were stirred for 1 h at ambient temperature or 24 h at 37° C. The samples were then centrifuged and the resulting supernatants were analyzed by HPLC to determine the solubility.

[3] = Hygroscopicity measurement by DVS apparatus; assay type: physicochemical; conditions: for Change in Mass (%) Water uptake at 30% RH / Change in Mass (%) Water uptake at 60% RH / Change in Mass (%) Water uptake at 90% RH: DVS, 25° C.
Protocol: In another embodiment, 1:1 Compound (I) tartrate salt is characterized by a hygroscopicity measurement, wherein water uptake is less than 4% (e.g. 2% or 1%) of the mass of the tartrate salt at 90% relative humidity (RH); or less than 2% (e.g. 1% or 0.5%) of the mass of the tartrate salt at 60% RH; or less than 1% (e.g. 0.5% or 0.1%) of the mass of the tartrate salt at 30% RH. The hygroscopicity in different relative humidity (RH) is measured under following conditions: • i) drying between 0.5 and 1.5 mg of the tartrate salt under a nitrogen atmosphere at 0% relative humidity for 2 hours; • ii) increasing or decreasing the relative humidity in steps of 10% from 0% to 90% then to 0%; • iii) maintaining the relative humidity at each step until the mass change compared to the mass of the original tartrate salt per minute is less than 0.01 (%/min), provided that minimum and maximum duration time at each step is 10 minutes and 180 minutes, respectively; and • iv) measuring the mass of the tartrate salt at the desired relative humidity (e.g., 90%, 60%, or 30%) and wherein steps i)-iv) are carried out at 25° C.
The compound to be tested is submitted to hygroscopicity test by means of a DVS apparatus. The testing parameters are in Table 5.

[4] = Long term stability under 3 storage conditions (appearance, HPLC purity/impurities, XRPD form); assay type: physicochemical; conditions: for Purity / Total amount of impurities: HPLC; for Crystalline form: XRPD
Protocol: A representative method used for stability evaluation is summarized Table 2.
Purity and stability of 4-amino-5-(6-(4-methylpiperazin-1-yl)-1H-benzo[d]imidazol-2-yl)thieno[2,3-b]pyridin-6(7H)-one (I) tartrate have been tested. Stability samples were prepared and stored under 3 different storage conditions: 2-8° C./ambient RH, 25° C./60% RH, and 40° C./75% RH. Stability samples were removed from their storage conditions within each pull window, and the samples were allowed to equilibrate to ambient conditions prior to analysis. The appearance was evaluated by visual inspection, purity and total amount of impurities were analyzed by HPLC and crystalline form was characterized by XRPD.

- AUC0−tlast ([1]; beagle dogs, oral dose 125 mg/kg, powder in capsule, plasma, up to 24 h, Di-Hydrochloride, 125 mg/kg): 6862 ng·h/mL
- Cmax ([1]; beagle dogs, oral dose 125 mg/kg, powder in capsule, plasma, Di-Hydrochloride, 125 mg/kg): 530 ng/mL
- Solubility (mg/mL) water ([2]; Di-Hydrochloride): 3.3 mg/mL
Structure (SMILES): CN1CCN(c2ccc3[nH]c(-c4c(N)c5ccsc5[nH]c4=O)nc3c2)CC1 [Di-HCl salt, 4-amino-5-(6-(4-methylpiperazin-1-yl)-1H-benzo[d]imidazol-2-yl)thieno[2,3-b]pydidin-6(7H)-one (I) Di-Hydrochloride]

- Change in Mass (%) Water uptake at 30% RH [3]: 0.5%
- Change in Mass (%) Water uptake at 60% RH [3]: 0.9%
- Change in Mass (%) Water uptake at 90% RH [3]: 26%
- AUC0−tlast ([1]; beagle dogs, oral dose 125 mg/kg, powder in capsule, plasma, up to 24 h, 125 mg/kg): 2264 ng·h/mL
- Cmax ([1]; male, beagle, dog, plasma, po, 125 mg/kg, beagle dogs, oral dose 125 mg/kg, powder in capsule, plasma, read-out: Cmax): 301 ng/mL
- Solubility (mg/mL) FaSSIF [2]: 0.09 mg/mL (≈ 237 µM)
- Solubility (mg/mL) SGF [2]: 0.5 mg/mL (≈ 1310 µM)
- Solubility (mg/mL) water [2]: 0.3 mg/mL (≈ 788 µM)
Structure (SMILES): CN1CCN(c2ccc3nc(-c4c(N)c5ccsc5[nH]c4=O)[nH]c3c2)CC1 [Free base, 4-amino-5-(6-(4-methylpiperazin-1-yl)-1H-benzo[d]imidazol-2-yl)thieno[2,3-b]pyridin-6(7H)-one]

- Change in Mass (%) Water uptake at 30% RH [3]: 3.7%
- Change in Mass (%) Water uptake at 60% RH [3]: 6.1%
- Change in Mass (%) Water uptake at 90% RH [3]: 38.3%
- AUC0−tlast ([1]; beagle dogs, oral dose 125 mg/kg, powder in capsule, plasma, up to 24 h, listed as Mono HCl (Batch 3), 125 mg/kg): 4354 ng·h/mL
- Cmax ([1]; beagle dogs, oral dose 125 mg/kg, powder in capsule, plasma, listed as Mono HCl (Batch 3), 125 mg/kg): 547 ng/mL
- Solubility (mg/mL) FaSSIF ([2]; Batch 3): 0.22 mg/mL
- Solubility (mg/mL) SGF ([2]; Batch 3): 9.0 mg/mL
- Solubility (mg/mL) water ([2]; Batch 3): 10.2 mg/mL
Structure (SMILES): CN1CCN(c2ccc3nc(-c4c(N)c5ccsc5[nH]c4=O)[nH]c3c2)CC1 [Mono HCl salt (Batch 3)]

- Change in Mass (%) Water uptake at 30% RH [3]: 0.06%
- Change in Mass (%) Water uptake at 60% RH [3]: 0.3%
- Change in Mass (%) Water uptake at 90% RH [3]: 0.7%
- Hygroscopicity (in words) ([3]; crystalline form, see Example 6): non-hygroscopic
- Plasma concentrations in dogs following oral administration (in words) ([1]; compared to the free base and the mono HCl salt): improved plasma concentrations
- AUC(0-t) ([1]; male, beagle, dog, plasma, po, 150 mg/kg, beagle dogs, oral dose 150 mg/kg, powder in capsule, plasma, up to 24 h, read-out: AUC0−tlast): 6550 ng·h/mL
- Cmax ([1]; male, beagle, dog, plasma, po, 150 mg/kg, beagle dogs, oral dose 150 mg/kg, powder in capsule, plasma, read-out: Cmax): 514 ng/mL
- Purity ([4]; 5° C./ambient RH, 1 month): 100%
- Total amount of impurities ([4]; 5° C./ambient RH, 1 month): 0.03%
- Purity ([4]; 5° C./ambient RH, 3 month): 100%
- Total amount of impurities ([4]; 5° C./ambient RH, 3 month): 0.0%
- Purity ([4]; 5° C./ambient RH, 6 month): 100%
- Total amount of impurities ([4]; 5° C./ambient RH, 6 month): 0.03%
- Purity ([4]; 5° C./ambient RH, 12 month): 100%
- Total amount of impurities ([4]; 5° C./ambient RH, 12 month): 0.03%
- Purity ([4]; 5° C./ambient RH, Initial): 100%
- Total amount of impurities ([4]; 5° C./ambient RH, Initial): 0.03%
- Crystalline form ([4]; 5° C./ambient RH, Initial): Yes
- Purity ([4]; 25° C./60% RH, 1 month): 100%
- Total amount of impurities ([4]; 25° C./60% RH, 1 month): 0.02%
- Purity ([4]; 25° C./60% RH, 3 month): 100%
- Total amount of impurities ([4]; 25° C./60% RH, 3 month): 0.03%
- Purity ([4]; 25° C./60% RH, 6 month): 100%
- Total amount of impurities ([4]; 25° C./60% RH, 6 month): 0.03%
- Purity ([4]; 25° C./60% RH, 12 month): 100%
- Total amount of impurities ([4]; 25° C./60% RH, 12 month): 0.03%
- Purity ([4]; 25° C./60% RH, Initial): 100%
- Total amount of impurities ([4]; 25° C./60% RH, Initial): 0.03%
- Crystalline form ([4]; 25° C./60% RH, Initial): Yes
- Purity ([4]; 40° C./75% RH, 1 month): 100%
- Total amount of impurities ([4]; 40° C./75% RH, 1 month): 0.02%
- Purity ([4]; 40° C./75% RH, 3 month): 100%
- Total amount of impurities ([4]; 40° C./75% RH, 3 month): 0.03%
- Purity ([4]; 40° C./75% RH, 6 month): 100%
- Total amount of impurities ([4]; 40° C./75% RH, 6 month): 0.03%
- Purity ([4]; 40° C./75% RH, 12 month): 100%
- Total amount of impurities ([4]; 40° C./75% RH, 12 month): 0.03%
- Purity ([4]; 40° C./75% RH, Initial): 100%
- Total amount of impurities ([4]; 40° C./75% RH, Initial): 0.03%
- Crystalline form ([4]; 40° C./75% RH, Initial): Yes
- Shelf life (in words) ([4]; see Example 8): extended shelf life
- Solubility (mg/mL) FaSSIF [2]: 0.02 mg/mL
- Solubility in water and in simulated gastric fluids (in words) ([2]; see Example 7 and Table 7): improved solubility
- Solubility (mg/mL) SGF [2]: 9.0 mg/mL
Structure (SMILES): CN1CCN(c2ccc3nc(-c4c(N)c5ccsc5[nH]c4=O)[nH]c3c2)CC1 [Tartrate salt, 4-amino-5-(6-(4-methylpiperazin-1-yl)-1H-benzo[d]imidazol-2-yl)thieno[2,3-b]pyridin-6(7H)-one (I) tartrate]
